d = 2'-deoxy (DNA); r = 2'-OH (RNA)
test system: 3p or 5p miR34a target-site in 3′ UTR of Renilla luciferase; assay: Dual glo assay of miR34a strand selection in HCT116 cells; type: cell-based, human; conditions: 50 nM miRNA, 300 ng plasmid, RNAiMAX, 24 h
Experimental: For all experiments RNAiMAX was used for transfection of both plasmid and miRNA in accordance with manufacturer's instructions, but with altered RNA and plasmid concentrations. For Dual glo assay, cells were co-transfected with 50 nM miRNA and 300 ng plasmid. For qPCR cells were transfected with 100 nM miRNA.
HCT116 cells were seeded 10000 cells per well in a 96 well plate and transfected with both plasmid and miRNA 24 hours later. All transfections were performed in triplicates. The plasmids used were the dual luciferase reporter plasmid with either a 3p or 5p miR34a target-site cloned into the 3′ UTR (denoted plasmid 3 or plasmid 5). After 24 hours 75 μl of Dual glo firefly substrate (Promega) was added to each well. 100 μl of cell-lysate was moved to a microtiter plate after 10 minutes of incubation and luminescence was measured and it was followed by addition of 75 μl of Stop glo Renilla substrate (Promega) to the same plate and luminescence was measured again after 10 minutes of incubation. The Renilla luminescence values were normalized against the firefly luminescence values and expressed as a percentage of the negative control, a scrambled non-functional miRNA.
Dual glo assay and RT-qPCR were performed to identify the degree of strand selection of the modified miRNA. First, we designed two different plasmids (psiCheck2 vector) such that miRNA target-sequence (3p or 5p) is cloned into the 3′-UTR of the Renilla luciferase gene (see FIG. 16) with firefly luciferase as the internal control to normalize the Renilla luciferase expression. We estimated the levels of the individual strand recruitment (3p or 5p) using the dual-glo luminesce assay. The target-sequence corresponds exactly to either the 3p or 5p strands, and a change in luminescence can be directly attributed to the gene silencing efficiency.
Four independent trials of dual glo assay were performed, with each of the samples in triplicates. Luminescence is shown as a percentage of the scrambled miRNA which serves as the negative control. Two different modifications were used on each of the strands of the miR34a (see Table 5). The miR34a was modified to make the 5p strand the guide strand by incorporating three deoxy thymidine residues at the 3′ end of the 3p strand (mod5a).

Substance | strand selection (Dual glo luminescence)
mod3a: miR34a with three deoxy thymidines added to 3′ end of 5p strand, SEQ ID NO: 20 and 35 (chain 1 CAAUCAGCAAGUAUACUGCCCU; chain 2 UGGCAGUGUCUUAGCUGGUUGUTTT; chain 1: RNA, backbone not given here; chain 2: sugars from the 5' end r22 d3, backbone not given here) | slight increase in strand selection but this was not statistically significant
mod3b: miR34a with five deoxy thymidines added to 3′ end of 5p strand, SEQ ID NO: 20 and 36 (chain 1 CAAUCAGCAAGUAUACUGCCCU; chain 2 UGGCAGUGUCUUAGCUGGUUGUTTTTT; chain 1: RNA, backbone not given here; chain 2: sugars from the 5' end r22 d5, backbone not given here) | slight increase in strand selection but this was not statistically significant
mod5a: miR34a with three deoxy thymidines added to 3′ end of 3p strand, SEQ ID NO: 37 and 21 (chain 1 CAAUCAGCAAGUAUACUGCCCUTTT; chain 2 UGGCAGUGUCUUAGCUGGUUGU; chain 1: sugars from the 5' end r22 d3, backbone not given here; chain 2: RNA, backbone not given here) | 3p strand being less chosen as the guide strand
mod5b: miR34a with five deoxy thymidines added to 3′ end of 3p strand, SEQ ID NO: 38 and 21 (chain 1 CAAUCAGCAAGUAUACUGCCCUTTTTT; chain 2 UGGCAGUGUCUUAGCUGGUUGU; chain 1: sugars from the 5' end r22 d5, backbone not given here; chain 2: RNA, backbone not given here) | 3p strand being less chosen as the guide strand

test system: MG63 cells; assay: Fluorescence / confocal microscopy of cellular distribution in MG63 cells; type: cell-based, human; conditions: fluorescently labelled, transfection reagent free
Experimental: Cellular uptake experiments were performed by plating cells (1×10^4) in an 8 well chamber slide. At 70% confluency, the cells were transfected with 50 nM Cy3-cpRNA and incubated at 37° C. for 24 h. Control wells were left untreated. Each transfection was performed in triplicate. […] The slides were mounted using Vectashield mounting medium containing 4′, 6-diamidino-2-phenylindole (DAPI) (Vector Labs, Burlingame, Calif.) to stain the nuclei of cells.
MG63—human osteosarcoma cells were cultured in α-MEM (Sigma-Aldrich, Haverhill, UK) medium containing 10% FBS, 1% L-Glutamine, and 1% antibiotics (PeSt) at 37° C. with 5% CO2. One day prior to the siRNA treatment, 35,000 cells were plated per each well of a 24-well plate. On the experiment day, cells were replaced with 10% heat inactivated-FBS containing α-MEM medium with 1% L-Glutamine, and 1% antibiotics (PeSt). Fluorescently (Cy3) labelled CP-siRNA and nicked CP-siRNA having GAPDH targeting sequence (final concentration: 50 nM) was given to the each well. After 24 hours the cells were washed with PBS and fixed with 4% formaldehyde for 20 mins at room temperature and then washed twice with PBS. DAPI (1 ug/ml in PBS) was added to cells for 5 mins and then washed with PBS. The cells were then visualized in Nikon TiU at 20×+1.5× and analysed with the Nikon Imaging software.

Substance | cellular distribution
CP-siRNA: GAPDH CP-siRNA, sense SEQ ID NO: 26 with dT5, antisense SEQ ID NO: 27; Cy3 labelled for imaging (sense CCGAGCCACAUCGCUCAGATTTTT; antisense UCUGAGCGAUGUGGCUCGGTT; sense: sugars from the 5' end r19 d5, backbone not given here; antisense: sugars from the 5' end r19 d2, backbone not given here; Cy3 label) | perinuclear distribution
nicked CP-siRNA: Nicked GAPDH CP-siRNA, sense SEQ ID NO: 28, nicked antisense sequences a and b SEQ ID NO: 29 and 30 (sense CCGAGCCACAUCGCUCAGATTTTT; antisense 1 UCUGAGCGAU; antisense 2 GUGGCUCGG; sense: sugars from the 5' end r19 d5, backbone not given here; antisense 1: RNA, backbone not given here; antisense 2: RNA, backbone not given here; further chemistry not fully specified) | some nuclear localization
